In patent US4599331A, “Etianic acids as antiangiogenics” (Syntex (U.S.A.) Inc., priority 1984, dated 1986):
Values joined by “and” are separate entries in the source; they are usually repeats but may differ in a detail not shown here. Equal entries are not always repeated.

How the values were obtained:
[1] = tested on: tyrosine aminotransferase (TAT); assay: tyrosine aminotransferase (TAT) induction in HTC cells; format: cell-based, rat; settings: Rattus norvegicus, Table 1, 24 or 48 hours, from 10^-6 M down, relative to dexamethasone = 1, read-out: Efficacy (DEX = 1) TAT
Procedure: In this example, tyrosine aminotransferase (TAT) activity was determined by a spectrophotometric assay. This enzyme catalyzes the conversion of tyrosine to p-hydroxyphenylpyruvate. This example is a standard in vitro test for glucocorticoid activity.
Addition of base caused the conversion of p-hydroxyphenylpyruvate to p-hydroxybenzaldehyde, which was quantitatively measured by absorbance at 331 nm. HTC cells, the target cells for the compound tested were grown in DMEM+10% FCS. Subconfluent cell cultures were incubated with test compounds in 6 well Costar dishes for 24 or 48 hours. The cells were incubated in either serum-free DMEM or DMEM containing 10% FCS previously filtered over activated charcoal. The cells were harvested in PBS using a rubber policeman, then washed once in PBS by centrifugation and resuspended in a 0.3 ml lysis buffer of 10 mM Tris, 10 mM EDTA and 0.25M sucrose at pH 7.4. The cells were then lysed by three cycles of freeze-thawing using dry ice and a 37° C. waterbath and the cells debris was pelleted by centrifugation for 2 min at 12,000 9 in an Eppendorf centrifuge.
The supernatant was used for a protein determination using either E+K stain or BioRad protein assay kit and TAT activity. 0.1 ml TAT buffer having 50 mM KH2 PO4, 1 mM EDTA, 0.1 mM Dithiothereitol (DTT), and 5 mg/ml BSA at pH 7.6 and 0.1 ml cell extract were mixed in glass tubes. A prewarmed mixture of 200 parts of a 2.3 mg/ml tyrosine solution in 0.05M phosphate buffer, 100 parts 0.125M KH2 PO4, 10 parts of a 0.92 mg/ml and ketoglutarate solution and 1 part of a 0.04 mg/ml pyridoxalphosphate solution had been previously made up. […] of the prewarmed mixture was added to each tube and allowed to react at 37° C. for 15 min. The addition of 0.1 ml 7N […] stopped the reaction. The mixture was then immediately vortexed.
Aldehyde formation was allowed to proceed at 37° C. for 30 min. The amound of aldehyde formed was determined by UV spectroscopic means. Absorbance was read at 331 nm using a solution composed of 0.1 ml TAT buffer, 0.1 ml lysis buffer, 0.7 ml reaction mixture and 0.1 ml 7N KOH as a blank. Optical Density values are linearily corrected for protein content.
As the absolute amount of enzyme induction varies between experiments, results are expressed as percent of the maximal induction obtained with dexamethasone, which was run as a standard in each assay.
In this series, compounds were assayed from 10^-6 M down. Results are expressed in the TAT column of tables 1, and 2 as the induction ability of a compound as compared to dexamethasone; a compound may either be a partial inducer or a superinducer.

Epidermal Growth Factor = assay: hamster cheek pouch (HCP) angiogenesis inhibition, EGF stimulus; format: in vivo, Male Syrian Golden hamsters; settings: Table 1; 10 μg EGF; between 0.5 and 4 mg/kg s.c. daily; each number independent result, average of six animals
Procedure: Each compound of the series was also tested for anti-angiogenic activity by an in vivo test that measured vascularization in a hamster's cheek pouch in response to either an angiogenic polypeptide growth factor, epidermal growth factor (EGF) or an induced […].
In this example, the in vivo angiogenesis inhibition activity of etianic acid esters was tested. Male Syrian Golden hamsters, weighing between 120 g and 150 g were anaesthetized by intraperitoneal (I.P.) injection of a rodent anaesthetic mixture consisting of 50 mg/kg ketamine hydrochloride, 5 mg/kg xylazine and 1 mg/kg acepromazine. The left cheek pouch of each animal was everted with a pincet and pinned down to a plexiglass-rubber stage and observed through a Zeiss stereomicroscope. 10 μg of EGF or 3×10^5 Hamster Melanoma RPM1 1846 tumor cells in 10 μl Cibachrome Blue agarose (Amicon) were injected subcutaneously in the left lower quadrant of the pouch with a Hamilton syringe.
The pouch was then reinserted and animals were kept under observation until recovered from anaesthesia.
The animals were dosed daily with one test compound, starting one day before stimulus injection and continuing until observation. The test compounds were dissolved in a minimum volume of ethanol and diluted in sterile phosphate buffer solution. […]
Either five days or twelve days after the EGF or tumor cell injection, animals were anaesthetized by I.P. injection of the rodent anaesthetic mixture. The pouch was everted on the stage and examined under the stereomicroscope. Pictures were taken with a 35 mm using Kodak Tungsten 50 professional films.
The following subjective scoring was used for evaluating the photographs:
1: minimal branching of vessels in the vicinity of injection site.
2: new vessels reach injection site, area involved is minimal (<50% of area surrounding injection site).
3: many vessels reach and cross injection site, new vessels are tortuous, (>50% of area surrounding injection site).
4: "full blown", many tortuous vessels, leakages, hemorrhages, 100% of area around injection site, invasion of new vessels into non-injected areas.
Results are expressed as the mean of the score. The results are shown in Tables 1 and 2 are percent inhibition of HCP Stimulus.

| SMILES | Emax [1] | % Inhibition HCP Stimulus Epidermal Growth Factor (Epidermal Growth Factor) |
| --- | --- | --- |
| CCC(=O)O[C@]1(C(=O)OC)[C@@H](C)C[C@H]2[C@@H]3CCC4=CC(=O)C=C[C@]4(C)[C@@]3(F)[C@@H](O)C[C@@]21C [compound 1] | 100% | 70% and 77% |
| CCC(=O)O[C@]1(C(=O)OC)[C@@H](C)C[C@H]2[C@@H]3CC(F)C4=C(F)C(=O)C=C[C@]4(C)[C@@]3(F)[C@@H](O)C[C@@]21C (stereo partly drawn) [compound 3] | 150% | 95% and 91% |
| CCCC(=O)O[C@]1(C(=O)OC)[C@@H](C)C[C@H]2[C@@H]3CC(F)C4=CC(=O)C=C[C@]4(C)[C@@]3(F)[C@@H](O)C[C@@]21C (stereo partly drawn) [compound 4] | 100% | 100% and 78% |
| CCC(=O)O[C@]1(C(=O)OC)[C@H](C)C[C@H]2[C@@H]3CC(F)C4=CC(=O)C=C[C@]4(C)[C@@]3(F)[C@@H](O)C[C@@]21C (stereo partly drawn) [compound 7] | 200% | 57% |
| CCC(=O)O[C@]1(C(=O)OC)[C@H](C)C[C@H]2[C@@H]3CC(F)C4=C(F)C(=O)C=C[C@]4(C)[C@@]3(F)[C@@H](O)C[C@@]21C (stereo partly drawn) [compound 8] | 100% | 100% and 72% and 82% |
| CCCC(=O)O[C@]1(C(=O)OC)[C@H](C)C[C@H]2[C@@H]3CC(F)C4=CC(=O)C=C[C@]4(C)[C@@]3(F)[C@@H](O)C[C@@]21C (stereo partly drawn) [compound 9] | 90% | 100% |
